Patent US11912705B2, “Cathinone derivatives, pharmaceutical formulations, and methods” (The Corporation of Mercer University, priority 2020, dated 2024)
“And” between values parts separate entries of the source, which are not always exact repeats. Equal values may be shown once.

Assays:
human M4R = biological target: T1, human M4R (Homo sapiens, UniProt P08173); assay: [3H]Scopolamine radioligand competition binding at M4R
T1 construct: host or cells: HEK293 (CRL-1573, ATCC), transient
T1 sequence (P08173 1-479): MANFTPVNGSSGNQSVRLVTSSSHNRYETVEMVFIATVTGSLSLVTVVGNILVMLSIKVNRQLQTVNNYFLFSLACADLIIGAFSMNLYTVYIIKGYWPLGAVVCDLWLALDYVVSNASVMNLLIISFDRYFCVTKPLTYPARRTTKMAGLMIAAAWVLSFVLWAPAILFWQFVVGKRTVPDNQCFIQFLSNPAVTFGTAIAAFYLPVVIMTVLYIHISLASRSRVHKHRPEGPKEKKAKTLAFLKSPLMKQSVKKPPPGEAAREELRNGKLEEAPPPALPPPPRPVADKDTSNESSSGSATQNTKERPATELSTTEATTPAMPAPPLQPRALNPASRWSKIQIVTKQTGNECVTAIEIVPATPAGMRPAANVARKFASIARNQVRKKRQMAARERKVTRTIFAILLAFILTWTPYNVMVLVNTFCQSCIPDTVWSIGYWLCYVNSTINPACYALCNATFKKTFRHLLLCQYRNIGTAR
Experimental: (§1) Radioligand Competition Binding: Radioligand competition binding assays were conducted using membranes collected from transiently transfected HEK293 cells (P<20 from a procured stock, CRL-1573, ATCC, Manassas, Va., USA) as previously described (Chen, Y., et al. Drug Test Anal 11, 990-998). Briefly, cells ˜90% confluent in 10 cm plates were transfected with 5 μg human M1R, M2R, M3R, M4R or […] cDNA (cDNA resource center, Bloomsburg, Pa., USA) using a lipid-based method (LipoD293 reagent, SignaGen Laboratories, Rockville, Md., USA). Membranes were collected by centrifugation about 48 hours later and stored at −80° C. until used. […] After a 90-minute incubation at room temperature on a shaker, contents from the plates were rapidly filtered through GF/B fiberglass filter mats, pre-soaked with ice cold 50 mM Tris buffer (pH 7.4), using a Microbeta Filtermat-96 cell harvester (Perkin Elmer, Waltham, Mass., USA). Approximately 200 mL of ice cold, 50 mM Tris buffer was then vacuumed through filter mats to wash away unbound radioligand. Filter mats were dried on a hot plate and soaked in Betaplate (Perkin Elmer, Waltham, Mass., USA) scintillation fluid in plastic bags. Bags were sealed and placed in cassettes. Radioactivity was measured in a Microbeta2 Microplate Counter (Perkin Elmer, Waltham, Mass., USA), and counts per minute corresponding to each well on the plates were recorded. For full dose-response competition binding assays, increasing half-log unit concentrations of five unsubstituted PSCs were tested at M2Rs and M1Rs, with the same procedures described above.
(§2) Curve Fitting and Statistical Analyses: All data were analyzed by GraphPad 8.3.0 (San Diego, Calif., USA). Ki values were determined from data fit to both one- and two-site models. […] EC50 and IC50 values from functional assays were determined from data fit to the log(agonist) vs. response (three parameters) or log(inhibitor) vs. response (three parameters) model, respectively. Kb values were calculated from IC50 values using the Cheng-Prusoff equation with modification (see, e.g., Leff, P., and Dougall, I. G. (1993) Trends Pharmacol Sci 14, 110-112): Kb=IC50/((2+([A]/[A50])nH)1/nH−1)

human M2R [1] = biological target: T2, human M2R (Homo sapiens, UniProt P08172); assay: M2R cAMP signaling (forskolin-stimulated cAMP, oxotremorine agonist); format: cell-based
T2 construct: host or cells: HEK293 (CRL-1573, ATCC), transient
T2 sequence (P08172 1-466): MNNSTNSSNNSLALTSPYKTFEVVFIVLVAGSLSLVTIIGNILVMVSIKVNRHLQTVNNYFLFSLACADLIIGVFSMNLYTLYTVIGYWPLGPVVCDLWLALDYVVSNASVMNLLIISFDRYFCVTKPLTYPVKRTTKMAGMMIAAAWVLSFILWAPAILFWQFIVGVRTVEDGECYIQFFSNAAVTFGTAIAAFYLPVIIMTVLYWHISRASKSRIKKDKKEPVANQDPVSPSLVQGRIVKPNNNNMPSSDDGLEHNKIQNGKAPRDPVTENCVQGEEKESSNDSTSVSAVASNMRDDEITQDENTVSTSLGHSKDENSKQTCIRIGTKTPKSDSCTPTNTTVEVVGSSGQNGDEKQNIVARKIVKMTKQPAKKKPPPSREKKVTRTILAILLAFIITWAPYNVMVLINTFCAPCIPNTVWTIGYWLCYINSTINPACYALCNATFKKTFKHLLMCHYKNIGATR
Experimental: The M2R coupled to Gαi/o proteins, and its agonism functioned to decrease formation of the intracellular second messenger cyclic-adenosine-monophosphate (cAMP). […] In the presence of oxotremorine, an antagonist of the M2R would be expected to reverse the effects of the agonist, thereby increasing cAMP formation.
M2R cAMP Signaling: cAMP measurements were performed with the cAMP Hunter eXpress® CHRM2 CHO-K1 GPCR assay (Eurofins DiscoveRx, Fremont, Calif., USA) according to the manufacturer's protocol. Briefly, in the provided 96-well tissue culture-treated plate, 100 μL of human M2R expressing CHO-K1 cells were seeded in cell plating reagent and incubated (37° C., 5% CO2, 95% humidity) overnight. Cell plating reagent was replaced with 30 μL of cell assay buffer the next day. For agonist stimulation, cells were treated with increasing half-log unit concentrations of oxotremorine in the presence of 10 μM forskolin, followed by incubation for 30 minutes. A cAMP antibody, cAMP working detection solution and enzyme acceptor solution were then added according to the protocol, and the final chemiluminescent signals were detected by a Mithras LB 940 microplate reader (Berthold Technologies, Bad Wildbad, Germany). Antagonist tests were run by pretreating cells with increasing half-log unit concentrations of α-PHP, followed by incubation for one hour. Cells were then treated with EC80 concentration of oxotremorine (130 nM) and 10 μM forskolin. The same incubation and detection procedure used for agonist assays was used for the remaining steps.
as §2

human M2R [2] = biological target: T2, human M2R; assay: [3H]Scopolamine radioligand competition binding at M2R; conditions: for M2 Selectivity: range of Ki ratios of M1, M3, M4, M5 versus M2
Experimental: as §1, §2

[3] = Affinities, Ki ± SEM, nM M2, human muscarinic M2 (N = 9), [3H]-N-methylscopolamine

Compound: CCCCC(C(=O)c1ccccc1)N1CCCCCC1 (stereo not shown) [Compound (2), 2-(azepan-1-yl)-1-phenylhexan-1-one]
- Ki (human M4R): 997 nM
- Kb (human M2R [1]): 158 nM
- Ki (human M2R [2]; [3]): 90 nM and 89.5 nM
- M2 Selectivity (human M2R [2]): 11.04-16.63

Compound: CCCCC(C(=O)c1ccccc1)N1CCCC1 (stereo not drawn) [α-PHP, 1-phenyl-2-(pyrrolidin-1-yl)hexan-1-one]
- Ki (human M4R): 1950 nM
- Kb (human M2R [1]): 120 nM
- fold increase in M2R affinity compared to α-PPP (human M2R [2]): 302 fold
- Ki (human M2R [2]; Ki at M2Rs, full dose-response [3H]Scopolamine competition binding): 251 nM
- Ki (human M2R [2]; estimated pKi at M2R, estimate from 1 and 10 μM concentrations (N = 2), N.C. = <5% displacement of radioligand at 10 μM): 468 nM

Compound: CCCCC(C(=O)c1ccccc1)N1CCCCC1 (stereo not shown) [Compound (1), 1-phenyl-2-(piperidin-1-yl)hexan-1-one]
- Ki (human M4R): 1240 nM
- Kb (human M2R [1]): 126 nM
- Ki (human M2R [2]; [3]): 70 nM and 69.9 nM
- M2 Selectivity (human M2R [2]): 9.72-17.76
